In patent US5380834A, “Immuno-suppressive agent” (Ishihara Sangyo Kaisha Ltd., priority 1992, dated 1995):
≈ marks a conversion by molar mass, not a printed value.

Assays:
[1] = test system: IgM antibody production from murine spleen B cells; assay: Effects on the IgM antibody production from murine spleen cells (LPS + IL4); type: cell-based, BALB/c mouse; details: Mus musculus, B-cell, 168 h; spleen B cells, LPS 10 μg/ml, IL4 100 U/ml, 7 days, enzyme-immunoassay; read-out: IC50 value, IgM antibody production
Description: (§1) Using murine spleen B cells, the effects of the compound of the formula (I) on the IgGl, IgM and IgE antibody production induced by the stimulation by LPS (lipopolysaccharide; Product No. 520.02051, manufactured by Wako Junyaku) and IL4 (interleukin 4), were studied. Namely, spleen cells of a BALB/c mouse were treated with a murine anti-Thy-1 antibody (obtained from Chiba University) and a rabbit complement (Product No. 3051, manufactured by cedarlane) to remove T cells, and 3×10^5 spleen B cells were cultured for 7 days together with 10 μg/ml of LPS, 100 U/ml of mouse-recombinant IL4 (Product No. MIL-4C, manufactured by Genzyme) and each concentration (from […]) of the compound of the formula (I) on a microplate with 96 wells by a 10% FCS-RPMI solution (in an incubator, 5% CO2, at 37° C.).
(§2) For the basic procedure of this test, reference was made to The Journal of Immunology, Vol. 136, p. 4538, (1986).
(§3) The amount of each antibody in the cell culture supernatant hereby obtained, was measured by the following enzyme-immunoassay. Firstly, on a microplate with 96 wells, 1 μg/ml of a rabbit anti-mouse IgGl antibody (Product No. 36243, manufactured by Cappel), 1 μg/ml of a goat anti-mouse IgM antibody (Product No. 0611-0201, manufactured by Cappel) or 10 μg/ml of a rat anti-mouse IgE monoclonal antibody (Product No. LO-ME-2, manufactured by Experimental Immunology) was coated (50 μl/well, at room temperature for 60 minutes), and then a nonspecific bond was blocked by a 0.1% bovine serum albumin-containing 10 mM sodium phosphate buffer (pH 7.2) (at room temperature for 60 minutes). Then, the above-mentioned cell culture supernatant or its diluted solution was added in an amount of 50 μl/well and reacted at room temperature for 60 minutes. Further, an alkaline phosphatase-labeled rabbit anti-mouse IgGl antibody (Product No. 61-0122, manufactured by Zymet) diluted 1,000 times, an alkaline phosphatase-labeled rabbit anti-mouse IgM antibody (Product No. 61-6822, manufactured by Zymet) diluted 2,000 times, or an alkaline phosphatase-labeled goat anti-mouse IgE antibody (Product No. PA-284, manufactured by Binding Site) diluted 500 times was added in an amount of 50 μl/well and reacted at room temperature for 60 minutes. 100 μl/well of a 10% diethanol amine buffer solution (pH 9.8) containing p-nitrophenyl phosphate as an enzyme substrate, was reacted, and the absorbance at 405 nm was measured. The amount of each antibody was calculated from the calibration curve of each standard antibody, and the IC50 value of the compound of the formula (I) on the antibody production was calculated using as the control value a value obtained in the absence of the compound of the formula (I).

[2] = test system: murine bone mallow cells; assay: Effects on the murine bone mallow cells (proliferation, 3H-TdR uptake); type: cell-based, BALB/c mouse; details: Mus musculus, bone marrow cells; 20% L929 culture supernatant, 48 hours, 3H-TdR uptake; Tables 12-15; read-out: IC50 value, c (murine bone mallow cells)
Description: Bone mallow cells were removed from the femur of a BALB/c mouse and suspended in a 10% FCS-RPMI solution. The cell suspension was put into a plastic Petri dish having a diameter of 10 cm and left to stand still (in an incubator, 5% CO2, at 37° C.). Two hours later, only floating cells were recovered, and adhesion cells were removed. 1×10^5 floating cells were cultured for 48 hours together with a 20% culture supernatant of L929 fibroblastoma and the compound of the formula (I) on a microplate with 96 wells by a 10% FCS-RPMI solution (in an incubator, 5% CO2, at 37° C.). Then, 0.5 μCi of ^3 H-TdR was added thereto, and the mixture was further cultured for 4 hours. Then, cells were collected by a cell harvester, and the radioactivity (dpm) of ^3 H-TdR uptaken into the cells, was measured. Such measured amounts of ^3 H-TdR uptaken into the cells were used as indices for the proliferation of bone mallow cells, and the radioactivity at each concentration (from 0.001 to 1,000 μg/ml) of the compound of the formula (I) was compared with the control value where the L929 culture supernatant was added alone, to calculate the IC50 value. In these Tables 12 and 13, the results of the bone mallow cells are shown by (c).
For the basic procedure of this test, reference was made to Seikagakujikken Koza compiled by Japan Biochemistry Association, Vol. 5, p. 266-270 (published by Tokyo Kagaku Dojin in 1986).

[3] = test system: IgGl antibody production from murine spleen B cells; assay: Effects on the IgGl antibody production from murine spleen cells (LPS + IL4); type: cell-based, BALB/c mouse; details: Mus musculus, B-cell, 168 h; spleen B cells, LPS 10 μg/ml, IL4 100 U/ml, 7 days, enzyme-immunoassay; read-out: IC50 value, IgGl antibody production
Description: as §1, §2, §3

[4] = test system: murine mixed lymphocyte reaction (spleen cells of BALB/c and C57BL/6 mice); assay: Effects on the murine mixed lymphocyte reaction (3H-TdR uptake); type: cell-based; details: Mus musculus, BALB/c + C57BL/6 spleen cells, 48 hours, read-out: IC50 value, b (murine mixed lymphocyte reaction)
Description: Using spleen cells of BALB/c and C57BL/6 mice, the effect of the compound of the formula (I) on the murine mixed lymphocyte reaction in both sides, was studied. Namely, spleen cells of both types of mice were mixed in an equal amount of 5×10^5 cells each, and the mixed cells were cultured together with the compound of the formula (I) for 48 hours on a microplate with 96 wells by a 10% FCS-RPMI solution (in an incubator, 5% CO2, at 37° C.). Then, 0.5 μCi of ^3 H-TdR was added thereto, and the mixture was further cultured for from 16 to 18 hours. Then, cells were collected by a cell harvester, and the radioactivity (dpm) of ^3 H-TdR uptaken into the cells, was measured. Such measured amounts of ^3 H-TdR uptaken into the cells were used as indices for the mixed lymphocyte reaction, and the radioactivity at each concentration (from 0.001 to 1,000 μg/ml) of the compound of the formula (I) was compared with the non-treated control value, to calculate the Ic50 value.
For the basic procedure for this test, reference was made to Selected methods in cellular immunology, p. 147-149 (translated by Katsuyuki Imai et al., published by Rikogakusha, (1982)).

[5] = test system: IgE antibody production from murine spleen B cells; assay: Effects on the IgE antibody production from murine spleen cells (LPS + IL4); type: cell-based, BALB/c mouse; details: Mus musculus, B-cell, 168 h; spleen B cells, LPS 10 μg/ml, IL4 100 U/ml, 7 days, enzyme-immunoassay; read-out: IC50 value, IgE antibody production
Description: as §1, §2, §3

[6] = test system: murine thymocytes; assay: Effects on the mitogenic response by murine thymocytes (Con A stimulation, 3H-TdR uptake); type: cell-based, BALB/c murine; details: Mus musculus, Thymocyte; BALB/c thymocytes, Con A 5 μg/ml, 48 hours, 3H-TdR uptake; read-out: IC50 value, a (mitogenic response of murine thymocytes)
Description: Using BALB/c murine thymocytes, the effect of the compound of the formula (I) on the mitogenic response of lymphocytes to the stimulation by concanavalin A (hereinafter referred to simply as Con A, Product No. L-1000, manufactured by Vector Laboratories) was studied. Namely, 4×10^5 murine thymocytes were cultured for 48 hours on a microplate with 96 wells in a RPMI1640 solution containing 10% of a fetal bovine serum (hereinafter referred to simply as a 10% FCS-RPMI solution) together with Con A (5 μg/ml) and the compound of the formula (I) (in an incubator, 5% CO2, at 37° C.). Then, 0.5 μCi of ^3 H-thymidine (hereinafter referred to simply as ^3 H-TdR) was added thereto, and the mixture was further cultured for 4 hours. Then, cells were collected by a cell harvester, and the radioactivity (dpm) of ^3 H-TdR uptaken into cells was measured. Such measured amounts of ^3 H-TdR uptaken into the cells were used as indices of the mitogenic response of the murine thymocytes, and the radioactivity at each concentration (from 0.001 to 1,000 μg/ml) of the compound of the formula (I) was compared with the control value treated solely by Con A, to calculate IC50 value. In these Tables 12 and 13, the results of murine thymocytes are shown by (a).
For the basic procedure of this test, reference was made to Selected methods in cellular immunology, p. 144-146 (translated by Katsuyuki Imai et al., published by Rikogakusha, (1982)).

Row | IC50 [1] [µg/mL] | IC50 [3] [µg/mL] | IC50 [4] [µg/mL] | IC50 [5] [µg/mL] | IC50 [6] [µg/mL] | Compound | IC50 [2] [µg/mL]
1 | 28 | 16 | 170 | 32 | 110 (≈ 379 µM) | CC(=O)Oc1ccccc1C(=O)O[C@H]1C=C[C@H]2CO[C@@H]1O2 [Compound 11] | 210 (≈ 723 µM)
2 | 35 | 34 | > 1000 | 41 | 120 (≈ 550 µM) | C1=C[C@H]2CO[C@H](O2)[C@H]1OCc1ccccc1 [Compound 48] | 430 (≈ 1970 µM)
3 | 250 | 300 | 560 | 370 | 350 (≈ 1650 µM) | CC(C)CC(=O)O[C@H]1C=C[C@H]2CO[C@@H]1O2 [Compound 2, 1,6-anhydro-3,4-dideoxy-2-O-isovaleryl-β-D-threo-hex-3-enopyranose] | > 1000
4 | 590 | 380 | 280 | 280 | 76 (≈ 535 µM) | C[C@]1(O)C=C[C@H]2CO[C@@H]1O2 [Compound 28] | 150 (≈ 1060 µM)
